The record followed here is ChEMBL document CHEMBL4828721, “Substituted dienes prepared from betulinic acid - Synthesis, cytotoxicity, mechanism of action, and pharmacological parameters” (Eur J Med Chem, 2021).

Each structure is given as a SMILES string. pIC50: −log10 of the molar value.

Assay [1] deals with CCRF-CEM. The assay can be described thus: Cytotoxicity against human CCRF-CEM cells assessed as reduction in cell viability measured after 72 hrs by MTS assay. The class given is functional, cell-based. For orientation: Tetrazolium dyes change colour on reduction, which living cells bring about.
The test system of assay [2] is CEM-DNR. As to the kind of experiment: Cytotoxicity against daunorubicin resistant human CEM-DNR cells assessed as reduction in cell viability measured after 72 hrs by MTS assay. The class given is functional, cell-based.
In assay [3] the test system is HCT-116. The assay can be described thus: Cytotoxicity against human HCT-116 cells assessed as reduction in cell viability measured after 72 hrs by MTS assay. Particulars: HCT-116, 72 h. The class given is functional, cell-based.
A short description of assay [4]: Cytotoxicity against human HCT116 p53-null cells assessed as reduction in cell viability measured after 72 hrs by MTS assay. The class given is functional, cell-based.
Assay [5] deals with K562. The assay can be described thus: Cytotoxicity against human K562 cells assessed as reduction in cell viability measured after 72 hrs by MTS assay. The class given is functional, cell-based. Particulars: K562, 72 h.
Assay [6] in a line: Cytotoxicity against paclitaxel resistant human K562-Tax cells assessed as reduction in cell viability measured after 72 hrs by MTS assay. The class given is functional, cell-based.
Assay [7] relates to A549. The assay can be described thus: Cytotoxicity against human A549 cells assessed as reduction in cell viability measured after 72 hrs by MTS assay. The class given is functional, cell-based. The conditions noted are these: A549, 72 h.
The subject of assay [8] is U2OS. The assay can be described thus: Cytotoxicity against human U2OS cells assessed as reduction in cell viability measured after 72 hrs by MTS assay. The class given is functional, cell-based.
Assay [9] deals with BJ. As to the kind of experiment: Cytotoxicity against human BJ cells assessed as reduction in cell viability measured after 72 hrs by MTS assay. The class given is cell-based.
Assay [10] relates to MRC5. The assay can be described thus: Cytotoxicity against human MRC5 cells assessed as reduction in cell viability measured after 72 hrs by MTS assay. The class given is cell-based. The conditions noted are these: MRC5, 72 h.

As a reminder, the pIC50 is the negative decadic logarithm of the IC50, by convention in mol/L. With `C=C(/C=C/c1ccccc1Br)[C@@H]1CC[C@]2(C(=O)O)CC[C@]3(C)[C@H](CC[C@@H]4[C@@]5(C)CC[C@H](O)C(C)(C)[C@@H]5CC[C@]43C)[C@@H]12`, the negative-log IC50 (pIC50) in [1] is 4.77; in [2], 4.31; in assay [3] it was 4.57; in assay [4], 4.61; in assay [5] it was 4.67; in [6] it was 4.32. The pIC50 was 4.54 in [7], 4.56 in [8], 4.33 in [9] and 4.45 in [10].
Consider `C=C(/C=C/c1ccccc1C(F)(F)F)[C@@H]1CC[C@]2(C(=O)O)CC[C@]3(C)[C@H](CC[C@@H]4[C@@]5(C)CC[C@H](O)C(C)(C)[C@@H]5CC[C@]43C)[C@@H]12`, for which the pIC50 in [1] is 4.66; in [2] it was less than 4.30; in assay [3], 4.48; in assay [4], 4.44; in assay [5] it was 4.31; in [6], less than 4.30. Besides, the pIC50 is 4.43 in assay [7], 4.53 in assay [8], less than 4.30 in assay [9] and less than 4.30 in [10].
Regarding `C=C(/C=C/c1ccc(Br)cc1)[C@@H]1CC[C@]2(C(=O)O)CC[C@]3(C)[C@H](CC[C@@H]4[C@@]5(C)CC[C@H](O)C(C)(C)[C@@H]5CC[C@]43C)[C@@H]12`, the negative-log IC50 (pIC50) is 5.19 in assay [1]; 4.54 in assay [2]; 4.48 in [3]; 4.50 in assay [4]; less than 4.30 in assay [5]; 4.53 in [6]. For the same compound, the pIC50 was less than 4.30 in [7], 4.57 in assay [8], less than 4.30 in assay [9] and 4.45 in [10].
Regarding `C=C(/C=C/c1ccc(C#N)cc1)[C@@H]1CC[C@]2(C(=O)O)CC[C@]3(C)[C@H](CC[C@@H]4[C@@]5(C)CC[C@H](O)C(C)(C)[C@@H]5CC[C@]43C)[C@@H]12`, the pIC50 in assay [1] is 4.62; in [2], 4.57; in assay [3] it was 4.41; in assay [4], 4.36; in [5] it was less than 4.30; in assay [6], 4.57. Moreover, the negative logarithm of the IC50 (pIC50) in assay [7] is less than 4.30; in assay [8] it was 4.36; in assay [9], less than 4.30; in assay [10], 4.30.
On to `C=C(C=O)[C@@H]1CC[C@]2(C(=O)O)CC[C@]3(C)[C@H](CC[C@@H]4[C@@]5(C)CC[C@H](O)C(C)(C)[C@@H]5CC[C@]43C)[C@@H]12`, for which the pIC50 was 6.10 in [1]; 5.42 in assay [2]; 5.72 in assay [3]; 5.72 in assay [4]; 5.47 in assay [5]; 5.89 in [6]. For the same compound, the negative-log IC50 (pIC50) is less than 4.30 in assay [7], 5.89 in [8], 5.17 in [9] and 5.59 in assay [10].
On to `C=C(/C=C/c1ccc(Cl)cc1)[C@@H]1CC[C@]2(C(=O)O)CC[C@]3(C)[C@H](CC[C@@H]4[C@@]5(C)CC[C@H](O)C(C)(C)[C@@H]5CC[C@]43C)[C@@H]12`, for which the pIC50 is 5.27 in [1]; 4.48 in [2]; 4.40 in assay [3]; 4.41 in [4]; 4.33 in assay [5]; 4.53 in [6]. Moreover, the pIC50 in assay [7] was 4.34; in assay [8] it was 4.59; in [9] it was less than 4.30; in assay [10], less than 4.30.
In the case of `C=C(/C=C/c1cccc([N+](=O)[O-])c1)[C@@H]1CC[C@]2(C(=O)O)CC[C@]3(C)[C@H](CC[C@@H]4[C@@]5(C)CC[C@H](O)C(C)(C)[C@@H]5CC[C@]43C)[C@@H]12`, the pIC50 is 4.91 in assay [1]; 4.60 in assay [2]; 4.43 in [3]; 4.45 in [4]; less than 4.30 in [5]; 4.61 in assay [6]. Moreover, the negative-log IC50 (pIC50) in assay [7] is 4.31; in assay [8], 4.53; in [9], less than 4.30; in assay [10], 4.35.
